From the NIST ThermoML archive (doi:10.1016/j.jct.2009.07.013)
± gives the expanded uncertainty stated by the source.

Settings: Liquid, Vibrating tube method

`CC(C)CCCC(C)CCCC(C)CCCCC(C)CCCC(C)CCCC(C)C` (stereo unspecified) [2,6,10,15,19,23-hexamethyltetracosane] gave a mass density (298.15 K, 100 kPa) of 804.9 ± 0.2 kg/m3, a mass density (298.15 K, 1000 kPa) of 805.4 ± 0.2 kg/m3 and a mass density (298.15 K, 5000 kPa) of 807.8 ± 0.2 kg/m3. For the same compound, the mass density (298.15 K, 10000 kPa) was 810.7 ± 0.3 kg/m3, the mass density (298.15 K, 15000 kPa) was 813.4 ± 0.3 kg/m3 and the mass density (298.15 K, 20000 kPa) was 816.1 ± 0.4 kg/m3. For the same compound, the mass density (298.15 K, 30000 kPa) was 821.2 ± 0.4 kg/m3, the mass density (298.15 K, 40000 kPa) was 826 ± 0.5 kg/m3 and the mass density (298.15 K, 45000 kPa) was 828.3 ± 0.6 kg/m3. It also gave a mass density (298.15 K, 50000 kPa) of 830.5 ± 0.6 kg/m3, a mass density (298.15 K, 60000 kPa) of 834.8 ± 0.7 kg/m3 and a mass density (323.15 K, 100 kPa) of 789 ± 0.2 kg/m3. It also gave a mass density (323.15 K, 1000 kPa) of 789.6 ± 0.2 kg/m3, a mass density (323.15 K, 5000 kPa) of 792.3 ± 0.2 kg/m3 and a mass density (323.15 K, 10000 kPa) of 795.5 ± 0.3 kg/m3. For the same compound, the mass density (323.15 K, 15000 kPa) was 798.6 ± 0.3 kg/m3, the mass density (323.15 K, 20000 kPa) was 801.5 ± 0.4 kg/m3 and the mass density (323.15 K, 30000 kPa) was 807.1 ± 0.5 kg/m3. For the same compound, the mass density (323.15 K, 40000 kPa) was 812.3 ± 0.6 kg/m3, the mass density (323.15 K, 45000 kPa) was 814.8 ± 0.6 kg/m3 and the mass density (323.15 K, 50000 kPa) was 817.2 ± 0.6 kg/m3. The mass density (323.15 K, 60000 kPa) was 821.9 ± 0.7 kg/m3, the mass density (348.15 K, 100 kPa) was 773 ± 0.2 kg/m3 and the mass density (348.15 K, 1000 kPa) was 773.7 ± 0.2 kg/m3. The mass density (348.15 K, 5000 kPa) was 776.7 ± 0.3 kg/m3, the mass density (348.15 K, 10000 kPa) was 780.3 ± 0.3 kg/m3 and the mass density (348.15 K, 15000 kPa) was 783.7 ± 0.4 kg/m3. It also gave a mass density (348.15 K, 20000 kPa) of 787 ± 0.4 kg/m3, a mass density (348.15 K, 30000 kPa) of 793.2 ± 0.5 kg/m3 and a mass density (348.15 K, 40000 kPa) of 799 ± 0.6 kg/m3. For the same compound, the mass density (348.15 K, 45000 kPa) was 801.7 ± 0.6 kg/m3, the mass density (348.15 K, 50000 kPa) was 804.3 ± 0.7 kg/m3 and the mass density (348.15 K, 60000 kPa) was 809.3 ± 0.8 kg/m3. It also gave a mass density (373.15 K, 1000 kPa) of 758 ± 0.2 kg/m3, a mass density (373.15 K, 5000 kPa) of 761.3 ± 0.3 kg/m3 and a mass density (373.15 K, 10000 kPa) of 765.3 ± 0.3 kg/m3. It also gave a mass density (373.15 K, 15000 kPa) of 769.1 ± 0.4 kg/m3, a mass density (373.15 K, 20000 kPa) of 772.7 ± 0.4 kg/m3 and a mass density (373.15 K, 30000 kPa) of 779.5 ± 0.5 kg/m3. For the same compound, the mass density (373.15 K, 40000 kPa) was 785.8 ± 0.6 kg/m3, the mass density (373.15 K, 45000 kPa) was 788.7 ± 0.7 kg/m3 and the mass density (373.15 K, 50000 kPa) was 791.6 ± 0.7 kg/m3. For the same compound, the mass density (373.15 K, 60000 kPa) was 797.1 ± 0.8 kg/m3, the mass density (398.15 K, 1000 kPa) was 742.1 ± 0.2 kg/m3 and the mass density (398.15 K, 5000 kPa) was 745.9 ± 0.3 kg/m3. For the same compound, the mass density (398.15 K, 10000 kPa) was 750.4 ± 0.3 kg/m3, the mass density (398.15 K, 15000 kPa) was 754.6 ± 0.4 kg/m3 and the mass density (398.15 K, 20000 kPa) was 758.6 ± 0.4 kg/m3. For the same compound, the mass density (398.15 K, 30000 kPa) was 766.1 ± 0.6 kg/m3, the mass density (398.15 K, 40000 kPa) was 772.9 ± 0.7 kg/m3 and the mass density (398.15 K, 45000 kPa) was 776.1 ± 0.7 kg/m3. It also gave a mass density (398.15 K, 50000 kPa) of 779.1 ± 0.7 kg/m3 and a mass density (398.15 K, 60000 kPa) of 785 ± 0.8 kg/m3.
Work on `Cc1ccccc1` [toluene] yielded a mass density (298.15 K, 100 kPa) of 862 ± 0.2 kg/m3, a mass density (298.15 K, 1000 kPa) of 862.7 ± 0.2 kg/m3 and a mass density (298.15 K, 5000 kPa) of 865.7 ± 0.2 kg/m3. For the same compound, the mass density (298.15 K, 10000 kPa) was 869.4 ± 0.2 kg/m3, the mass density (298.15 K, 15000 kPa) was 873 ± 0.3 kg/m3 and the mass density (298.15 K, 20000 kPa) was 876.4 ± 0.3 kg/m3. The mass density (298.15 K, 30000 kPa) was 882.9 ± 0.3 kg/m3, the mass density (298.15 K, 40000 kPa) was 889 ± 0.4 kg/m3 and the mass density (298.15 K, 45000 kPa) was 891.9 ± 0.4 kg/m3. It also gave a mass density (298.15 K, 50000 kPa) of 894.7 ± 0.4 kg/m3, a mass density (298.15 K, 60000 kPa) of 900.2 ± 0.4 kg/m3 and a mass density (323.15 K, 100 kPa) of 838.7 ± 0.2 kg/m3. It also gave a mass density (323.15 K, 1000 kPa) of 839.5 ± 0.2 kg/m3, a mass density (323.15 K, 5000 kPa) of 843.1 ± 0.2 kg/m3 and a mass density (323.15 K, 10000 kPa) of 847.4 ± 0.2 kg/m3. For the same compound, the mass density (323.15 K, 15000 kPa) was 851.5 ± 0.3 kg/m3, the mass density (323.15 K, 20000 kPa) was 855.4 ± 0.3 kg/m3 and the mass density (323.15 K, 30000 kPa) was 862.7 ± 0.4 kg/m3. For the same compound, the mass density (323.15 K, 40000 kPa) was 869.5 ± 0.4 kg/m3, the mass density (323.15 K, 45000 kPa) was 872.7 ± 0.4 kg/m3 and the mass density (323.15 K, 50000 kPa) was 875.9 ± 0.5 kg/m3. For the same compound, the mass density (323.15 K, 60000 kPa) was 881.9 ± 0.5 kg/m3, the mass density (348.15 K, 100 kPa) was 814.6 ± 0.2 kg/m3 and the mass density (348.15 K, 1000 kPa) was 815.6 ± 0.2 kg/m3. It also gave a mass density (348.15 K, 5000 kPa) of 819.8 ± 0.2 kg/m3, a mass density (348.15 K, 10000 kPa) of 824.7 ± 0.3 kg/m3 and a mass density (348.15 K, 15000 kPa) of 829.5 ± 0.3 kg/m3. The mass density (348.15 K, 20000 kPa) was 834 ± 0.3 kg/m3, the mass density (348.15 K, 30000 kPa) was 842.4 ± 0.4 kg/m3 and the mass density (348.15 K, 40000 kPa) was 850 ± 0.5 kg/m3. The mass density (348.15 K, 45000 kPa) was 853.6 ± 0.5 kg/m3, the mass density (348.15 K, 50000 kPa) was 857.1 ± 0.5 kg/m3 and the mass density (348.15 K, 60000 kPa) was 863.8 ± 0.6 kg/m3. The mass density (373.15 K, 1000 kPa) was 791.1 ± 0.2 kg/m3, the mass density (373.15 K, 5000 kPa) was 796 ± 0.2 kg/m3 and the mass density (373.15 K, 10000 kPa) was 801.8 ± 0.3 kg/m3. For the same compound, the mass density (373.15 K, 15000 kPa) was 807.3 ± 0.3 kg/m3, the mass density (373.15 K, 20000 kPa) was 812.5 ± 0.4 kg/m3 and the mass density (373.15 K, 30000 kPa) was 822 ± 0.4 kg/m3. The mass density (373.15 K, 40000 kPa) was 830.6 ± 0.5 kg/m3, the mass density (373.15 K, 45000 kPa) was 834.6 ± 0.5 kg/m3 and the mass density (373.15 K, 50000 kPa) was 838.4 ± 0.6 kg/m3. It also gave a mass density (373.15 K, 60000 kPa) of 845.8 ± 0.6 kg/m3, a mass density (398.15 K, 1000 kPa) of 765.3 ± 0.2 kg/m3 and a mass density (398.15 K, 5000 kPa) of 771.3 ± 0.3 kg/m3. For the same compound, the mass density (398.15 K, 10000 kPa) was 778.3 ± 0.3 kg/m3, the mass density (398.15 K, 15000 kPa) was 784.7 ± 0.4 kg/m3 and the mass density (398.15 K, 20000 kPa) was 790.8 ± 0.4 kg/m3. It also gave a mass density (398.15 K, 30000 kPa) of 801.6 ± 0.5 kg/m3, a mass density (398.15 K, 40000 kPa) of 811.2 ± 0.6 kg/m3 and a mass density (398.15 K, 45000 kPa) of 815.7 ± 0.6 kg/m3. The mass density (398.15 K, 50000 kPa) was 819.9 ± 0.6 kg/m3 and the mass density (398.15 K, 60000 kPa) was 828 ± 0.7 kg/m3.
